Here are results for 1 compound from publication PMC9765450, “Structures of Fission Yeast Inositol Pyrophosphate Kinase Asp1 in Ligand-Free, Substrate-Bound, and Product-Bound States” (mBio, 2022).

In the experiment the target is T1, Asp1-(1-385) kinase domain (Schizosaccharomyces pombe, UniProt O74429, E248Q).
T1 construct: N-terminal kinase domain, residues 1-385
Nature of the experiment: PAGE kinase assay, toluidine blue staining. The experiment is classed as biochemical. The settings on record: 2 mM GTP, 0.5 mM 5-IP7, 5 mM MgCl2, pH 6.2, 37 °C; phosphate donor.

The structures appear in SMILES notation.

Consider `Nc1nc2c(ncn2[C@@H]2O[C@H](COP(=O)(O)OP(=O)(O)OP(=O)(O)O)[C@@H](O)[C@H]2O)c(=O)[nH]1` [GTP], for which the “PAGE kinase assay, toluidine blue staining” value is on record as “elicited a gain of function whereby GTP was enabled as a phosphate donor”.
